Results as given in article PMC9822135, “Chemical Constituents from the Leaves of Ligustrum robustum and Their Bioactivities” (Molecules, 2023).
Like-named read-outs stand apart in the source and are kept apart here.

Experiments:
α-amylase = α-amylase inhibitory activity assay (starch, DNS reagent); type: biochemical; conditions: mean ± SD (n = 3)
Procedure: S1.3. Determination of α-amylase inhibitory activity
Phosphate buffer (20 mM, pH 6.9, containing 6 mM NaCl) was used as the […]
µL, 1%, w/v) were mixed and incubated in a 96-well microplate at 37 °C for 10 min.
Then, α-amylase solution (50 µL, 0.2 U/mL) was added and the compound was incubated at 37 °C for an additional 10 min. The reaction was stopped by addition of […]
microplate was immediately heated in 95 °C water bath for 10 min. When the reaction solution cooled to room temperature, allsamples were diluted by adding distilled water (50 µL), and then their absorbance was measured using a microplate reader at […]
starch solution) at 540 nm, thus the inhibitory activity was calculated as (Acontrol-Asample)/Acontrol×100%, in which Asample was the absorbance of the sample and Acontrol was the absorbance of the phosphate buffer control without test samples. Acarbose was used as the positive control.

[1] = ABTS radical scavenging assay; conditions: mean ± SD (n = 3)
[2] = biological target: fatty acid synthase (FAS) (Gallus gallus, UniProt P12276); assay: FAS inhibitory activity assay (NADPH absorbance at 340 nm)
Chain of fatty acid synthase (FAS) (P12276 2-2512 limits assumed): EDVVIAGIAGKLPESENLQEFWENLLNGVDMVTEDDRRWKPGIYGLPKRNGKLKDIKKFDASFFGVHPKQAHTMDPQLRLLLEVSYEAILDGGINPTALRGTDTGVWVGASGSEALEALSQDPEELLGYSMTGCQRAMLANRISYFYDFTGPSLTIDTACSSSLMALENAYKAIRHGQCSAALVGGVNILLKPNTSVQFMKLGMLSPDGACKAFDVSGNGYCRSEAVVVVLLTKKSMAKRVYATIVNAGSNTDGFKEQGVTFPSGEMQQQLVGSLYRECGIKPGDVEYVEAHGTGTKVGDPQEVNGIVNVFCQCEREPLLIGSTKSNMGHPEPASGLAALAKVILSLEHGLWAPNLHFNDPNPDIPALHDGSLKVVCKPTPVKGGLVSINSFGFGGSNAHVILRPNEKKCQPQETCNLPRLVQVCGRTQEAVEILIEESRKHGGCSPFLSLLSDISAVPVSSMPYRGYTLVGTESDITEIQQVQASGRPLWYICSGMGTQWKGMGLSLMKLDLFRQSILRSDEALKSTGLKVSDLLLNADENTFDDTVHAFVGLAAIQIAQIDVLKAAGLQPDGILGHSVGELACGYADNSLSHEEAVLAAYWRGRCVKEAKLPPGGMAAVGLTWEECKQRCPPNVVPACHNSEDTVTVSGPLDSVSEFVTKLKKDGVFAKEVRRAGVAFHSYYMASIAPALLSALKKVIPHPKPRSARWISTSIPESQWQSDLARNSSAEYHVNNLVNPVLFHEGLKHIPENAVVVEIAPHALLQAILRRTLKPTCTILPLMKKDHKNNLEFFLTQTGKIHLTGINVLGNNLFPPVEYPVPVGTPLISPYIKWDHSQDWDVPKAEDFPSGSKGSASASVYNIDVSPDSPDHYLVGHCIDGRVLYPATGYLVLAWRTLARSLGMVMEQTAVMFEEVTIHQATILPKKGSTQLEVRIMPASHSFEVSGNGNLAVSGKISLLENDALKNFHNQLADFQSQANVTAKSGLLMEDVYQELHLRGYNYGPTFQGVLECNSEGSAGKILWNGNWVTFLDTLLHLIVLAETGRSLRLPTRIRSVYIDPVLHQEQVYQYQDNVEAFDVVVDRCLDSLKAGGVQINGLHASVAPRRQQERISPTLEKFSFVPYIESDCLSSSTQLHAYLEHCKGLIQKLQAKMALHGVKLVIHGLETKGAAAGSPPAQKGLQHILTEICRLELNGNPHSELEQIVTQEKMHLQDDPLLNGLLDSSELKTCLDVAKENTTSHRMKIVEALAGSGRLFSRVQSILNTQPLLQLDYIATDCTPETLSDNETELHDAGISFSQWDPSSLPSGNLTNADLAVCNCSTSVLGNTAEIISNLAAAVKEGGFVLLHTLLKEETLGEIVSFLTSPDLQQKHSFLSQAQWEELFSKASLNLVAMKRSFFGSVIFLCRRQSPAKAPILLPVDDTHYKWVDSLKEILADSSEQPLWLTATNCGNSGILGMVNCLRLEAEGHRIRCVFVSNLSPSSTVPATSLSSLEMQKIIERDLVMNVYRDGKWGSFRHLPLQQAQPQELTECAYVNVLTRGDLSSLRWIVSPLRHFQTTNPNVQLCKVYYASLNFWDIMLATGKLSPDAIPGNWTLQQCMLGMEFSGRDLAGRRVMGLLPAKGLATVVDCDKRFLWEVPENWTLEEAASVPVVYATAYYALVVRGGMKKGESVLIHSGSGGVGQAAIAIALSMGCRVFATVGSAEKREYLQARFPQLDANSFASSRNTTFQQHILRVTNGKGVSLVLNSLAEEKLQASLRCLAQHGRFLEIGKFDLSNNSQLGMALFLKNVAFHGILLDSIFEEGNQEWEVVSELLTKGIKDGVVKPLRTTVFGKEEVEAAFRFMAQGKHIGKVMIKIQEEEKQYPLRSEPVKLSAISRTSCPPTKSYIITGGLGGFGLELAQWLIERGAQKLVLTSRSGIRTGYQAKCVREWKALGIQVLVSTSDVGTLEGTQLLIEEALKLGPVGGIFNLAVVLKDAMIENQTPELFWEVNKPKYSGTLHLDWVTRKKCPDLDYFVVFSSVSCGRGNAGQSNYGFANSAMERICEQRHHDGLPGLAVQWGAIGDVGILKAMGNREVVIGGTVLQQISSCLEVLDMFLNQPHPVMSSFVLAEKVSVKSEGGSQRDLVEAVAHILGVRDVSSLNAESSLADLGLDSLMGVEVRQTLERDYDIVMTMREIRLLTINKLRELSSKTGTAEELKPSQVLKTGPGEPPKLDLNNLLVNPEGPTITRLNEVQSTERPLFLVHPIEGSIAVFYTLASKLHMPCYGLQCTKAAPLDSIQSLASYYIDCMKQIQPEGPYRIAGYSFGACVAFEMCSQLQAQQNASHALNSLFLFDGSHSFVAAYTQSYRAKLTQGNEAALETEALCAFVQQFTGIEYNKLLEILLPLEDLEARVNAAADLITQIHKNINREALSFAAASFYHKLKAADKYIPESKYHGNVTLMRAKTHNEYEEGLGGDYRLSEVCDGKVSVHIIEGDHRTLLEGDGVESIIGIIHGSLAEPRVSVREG
Procedure: Determination of FAS inhibitory activity
diluted with potassium phosphate buffer (0.1 M, pH 7.0). Sample solution (100 L, 20-2000 μM, 37 °C) and FAS substrates (1.8 mL, 37 °C) were mixed in a cuvette, and then FAS solution (100 L, 37 °C, isolated from chicken liver and kept in ice-bath before use) was added. The absorbance of reaction compound was monitored by a
UV-vis spectrophotometer at 340 nm in 1 min. The inhibitory effect was calculated by the following equation: FAS inhibition (%) = (Acontrol- Asample)/Acontrol×100%, where Acontrolrepresented the FAS activity in the control group (phosphate buffer instead of sample solution), Asamplerepresented the FAS activity in the sample groups. The FAS activity was calculated as (A0 - A1)/1 min, in which A0 was the absorbance of the
reaction compound when the FAS was added, and A1 was the absorbance of the
reaction compound after reaction 1 min. Orlistat was used as the positive control.
FAS substrates: 0.1 M potassium phosphate buffer (pH 7.0), 1 mM ethylene-diaminetetraacetic acid (EDTA), 1 mM dithiothreitol, 3 M acetyl-coenzyme A, 10 M methylmalonyl coenzyme A, 35 M NADPH.

[3] = DPPH radical scavenging assay; conditions: mean ± SD (n = 3), NA = no activity
Procedure: S1.4. DPPH radical scavenging assay
The DPPH radical scavenging assay was used to evaluate the antioxidant activity of compounds 1-10. In a 96-well microplate, 100 µL of DPPH solution (200 µM in ethanol) was added to 100 µL sample in ethanol at graded concentrations ranging from 7 to 500 µM. The compound was incubated in the dark at room temperature for […]

α-glucosidase = α-glucosidase inhibitory activity assay (pNPG substrate); type: biochemical, yeast; conditions: for α-Glucosidase Inhibition at 0.1 mM: mean ± SD (n = 3), NA = no activity; for α-glucosidase inhibitory activity (in words): compared with positive control acarbose
Procedure: S1. Determination of bioactivities […]
S1.2. Determination of α-glucosidase inhibitory activity […]
diluted with phosphate buffer (0.1 M, pH 6.8). […]
and 4-nitrophenyl α-D-glucopyranoside (pNPG) solution (50 µL, 5 mM) were mixed
(1 picture or pasted object on this page, not shown here) […]
and incubated in a 96-well microplate at37 °C for 5 min. α-Glucosidase from yeast (50 µL, 0.2 U/mL) was added and incubated at 37 °C for another 30 min. Finally, 50 µL of Na2CO3 (1M) was added to terminate the reaction. The absorbance of compound was measured using a microplate reader at a wavelength 405 nm. The background absorbance (phosphate buffer instead of substrate pNPG) of all samples […]
calculated by the following equation: α-glucosidase inhibition (%) = (Acontrol-Asample)/Acontrol×100%, where Acontrolrepresented the absorbance of phosphate buffer control without testsamples, Asample represented the absorbance of test samples.
Acarbose was used as the positive control. […]

| Compound | α-Amylase Inhibition at 0.1 mM (α-amylase) | IC50 [1] [µM] | IC50 ([2]; read-out: FAS IC50, mean ± SD (n = 3), NA = no activity, FAS isolated from chicken liver) [µM] | IC50 [3] [µM] | IC50 [2] [µM] | α-Glucosidase Inhibition at 0.1 mM (α-glucosidase) | α-glucosidase inhibitory activity (in words) (α-glucosidase) |
| --- | --- | --- | --- | --- | --- | --- | --- |
| CC/C=C/CCO[C@@H]1O[C@H](COC(=O)C=Cc2ccc(O)cc2)[C@@H](O)[C@H](O[C@@H]2O[C@@H](C)[C@H](O)[C@@H](O)[C@H]2O)[C@H]1O [Compound 1] | 27.9 ± 6.4 bc % | 5.65 ± 0.19 | – | – | – | – | – |
| C=C(C)CO[C@@H]1O[C@H](COC(=O)C=Cc2ccc(O)cc2)[C@@H](O)[C@H](O[C@@H]2O[C@@H](C)[C@H](O)[C@@H](O)[C@H]2O)[C@H]1O [Compound 2] | 24.0 ± 1.5 bc % | 103 ± 4 | 4.1 ± 0.12 | – | – | – | – |
| C[C@@H]1O[C@@H](O[C@H]2[C@H](O)[C@@H](COC(=O)C=Cc3ccc(O)cc3)OC(O)[C@@H]2O)[C@H](O)[C@H](O)[C@H]1O (some centres unmarked) [Compound 3] | 29.8 ± 1.8 bc % | 12.04 ± 0.08 | – | > 250 | 6.25 ± 0.2 | – | – |
| CC1OC(OC2C(O)C(O)OC(CO)C2OC(=O)C=Cc2ccc(O)cc2)C(O)C(O)C1O (centres unmarked) [Compound 4] | 25.6 ± 1.0 bc % | 11.2 ± 0.4 | – | – | 10.5 ± 0.32 | – | – |
| C[C@@H]1O[C@@H](O[C@@H]2[C@@H](O)[C@@H](O)[C@H](O[C@H]3[C@H](O)[C@@H](COC(=O)C=Cc4ccc(O)cc4)OC(O)[C@@H]3O)O[C@H]2C)[C@H](O)[C@H](O)[C@H]1O (some centres unmarked) [Compound 5] | 26.5 ± 4.0 bc % | 15.5 ± 0.36 | – | > 250 | 9.75 ± 0.24 | – | – |
| C[C@@H]1O[C@@H](O[C@H]2[C@H](OC(=O)/C=C/c3ccc(O)c(O)c3)[C@@H](CO)OC(O)[C@@H]2O)[C@H](O)[C@H](O)[C@H]1O (stereo partly drawn) [Compound 6, 3-O-(α-L-rhamnopyranosyl)-4-O-(trans-caffeoyl)-D-glucopyranose] | 23.0 ± 0.7 c % | 17 ± 0.45 | – | 46.7 ± 1.58 | – | – | – |
| O=c1c(O[C@@H]2O[C@H](CO)[C@@H](O)[C@H](O)[C@H]2O)c(-c2ccc(O)cc2)oc2cc(O[C@@H]3O[C@H](CO)[C@@H](O)[C@H](O)[C@H]3O)cc(O)c12 [Compound 7, kaempferol 3,7-diglucoside] | 31.8 ± 0.5 b % | 9.34 ± 0.04 | – | – | 8.1 ± 0.37 | 15.6 ± 0.9 c % | moderate and weaker than acarbose |
| COc1cc([C@H]2c3cc(O[C@@H]4O[C@H](CO)[C@@H](O)[C@H](O)[C@H]4O)c(OC)cc3C[C@@](O)(CO)[C@@H]2CO)ccc1O [Compound 8, (+)-cycloolivil 6-O-β-D-glucopyranoside] | 28.5 ± 2.7 bc % | 29.1 ± 1.11 | – | > 250 | 8.01 ± 0.26 | – | – |
| COC(=O)C=Cc1ccc(O)cc1 [Compound 9] | 29.5 ± 0.6 bc % | 8.78 ± 0.09 | – | > 250 | 15.4 ± 0.42 | 33.8 ± 2.9 b % | moderate and weaker than acarbose |
| OCCc1ccc(O)cc1 [Compound 10, 4-hydroxyphenylethanol] | 16.2 ± 5.0 d % | 3.41 ± 0.08 | – | – | – | – | – |
| O=C1O[C@H]([C@@H](O)CO)C(O)=C1O [L-(+)-ascorbic acid, reference compound] | – | 10.1 ± 0.19 | – | 13.66 ± 0.13 | – | – | – |
